# Patent US20250092395A1, “A GLUN2D INHIBITOR FOR USE IN THE TREATMENT OR RELAPSE PREVENTION OF A DEPRESSIVE EPISODE” (priority 2022, published 2025)
# Entries after “also recorded” stand apart in the source; their conditions may differ.
# Key:
# AMPAR and NMDAR currents = assay: Control experiments: currents recorded at −80 mV and +40 mV; type: cell-based, mice; conditions: CNQX 10 μM; for currents recorded at −80 mV: then addition of DAPV 100 μM; for currents recorded at +40 mV: DAPV 100 μM
# [1] = tested on: mice subjected to the chronic despair model (CDM); assay: Chronic despair model (CDM) swim test, immobility time; type: in vivo; conditions: for immobility time of CDM mice treated with NAB-14, comedication: CIQ (10 mg/kg) or lorazepam (0,125 mg/kg) applied prior to NAB-14
# Experimental: Induction phase: Mice were forced to swim in a glass cylinder (0 26 cm, 60 cm high) filled to 25 cm with 25° C. warm water for 10 min on 5 consecutive days. After the swimming, the animals were kept in their cages for two days before treatment and experiment readout was performed. The immobility time was measured in each session.
# (§1) Behavioral Readout: After the treatment intervention, animals were either tested in an additional swim session (test day) to measure immobility time or tested in the InteliCage using the Nose-pokes sucrose preference test. For the assessment of the immobility time, mice were videotaped and two independent raters who were blinded to the experimental group analyzed the videos. Immobility time was defined as the cumulative time that the animals spend stationary with only enough movements of the tails or the forepaws to keep the head above the water surface. No distance is actively travelled except for passive floating, no directed movement of the front paws observed and the body of the animal mostly oriented parallel to the walls of the cylinder.
# [2] = tested on: CA3-CA1 synapse in hippocampal brain slices of CDM mice; assay: aLTP/aLTD inducibility in hippocampal brain slices of CDM mice after in vivo treatment; conditions: for CDM-induced blockade of LTP inducibility (aLTP) / LTD inducibility (EPSP amplitude after aLTD protocol) / LTP reestablishment by NAB-14, comedication: CDM mice; for CDM-induced blockade of LTP inducibility (aLTP): pretreatment; for LTD inducibility (EPSP amplitude after aLTD protocol): treatment after CDM; for LTP reestablishment by NAB-14, comedication: CIQ or lorazepam injected 20 min prior to NAB-14
# Experimental: Animals were preoxygenated in a 100% oxygen atmosphere for 5 min before cervical dislocation and decapitated according to national and institutional guidelines. Transverse 300 […] were cut from hippocampus with a Vibratome (VT1200, Leica, Japan). Slices were prepared in artificial cerebrospinal fluid (ACSF) containing (in mmol/I): 125 NaCl, 25 NaHCO3, 1.25 NaH2PO4, 2.5 KCL, 1 MgCl2, 27 Glucose, 2 CaCl2) bubbled with carbogen (95% O2, 5% CO2).
# After 20 min resting time at 35° C., slices were kept at room temperature in aCSF and transferred into the recording chamber (volume approx. 2-3 ml) and continuously superfused with aCSF (rate approx. 5-10 ml/min-). Differential interference contrast video microscopy was used to identify location of CA1 pyramidal neurons (Zeiss Axioskop 2 FS plus, Zeiss Microscopy, Germany). Beside optical identification neurons were classified according to their characteristic firing frequency adaptation to long depolarising current pulses. Borosilicate glass tubes (2.0 mm outer diameter, 0.5 mm wall thickness; Hilgenberg, Germany) were used to pull patch pipettes. Pipettes with a resistance of 5-10 MΩ were used and series resistance of 10-50 MΩ was compensated by bridge balance. Patch pipettes were filled with an internal solution containing (in mM) for EPSP-measurements: 132K-gluconate, 20KCL, 2MgCl2, 10Hepes, 0.1EGTA, 4 Na2ATP, 0.3NaGTP. PH was adjusted to 7.2 with KOH. For current measurements: 135Csgluconate, 2CsCl, 5 QX314, 10 Hepes, 10EGTA, 2MgCl2, 2Na2ATP, 2TEACI, pH was adjusted to 7.2 with HCl. Osmolarity (280-300 mosmol/1) was controlled at the beginning of each experimental day with Osmomat (Gonotec GmbH, Germany).
# A stimulation pipette (patch pipette with 1-3 MΩ resistance when filled with internal solution) was placed superficially in the stratum radiatum of the CA1 region in approximately […] distance to the pyramidal cell layer. Subthreshold excitatory postsynaptic potentials (EPSPs, 2 7 mV) were evoked by Schaffer collateral stimulation with voltage pulses of 10-80 V (frequency of 0.1 Hz, duration of 200 μs) using a stimulus isolator (Model 2100 Isolated pulse stimulator, Carlsborg, U.S.A.). Resting membrane potentials were between −75 and −65 mV and holding potential was −70 mV. 50 ms current test pulses (leading to 5-10 mV hyperpolarization) were applied to control input and series resistances after every 10th EPSP. EPSPs were combined with APs triggered by short (3 ms) current application of 900 pA via the patch-clamp electrode. EPC-10 amplifiers (HEKA, Germany) were used and signals were filtered at 5 kHz. Patchmaster NEXT software (Version 1.2, HEKA, Germany) was used for data acquisition and experiments were performed at room temperature.
# aLTP: Five EPSPs and five postsynaptic APs were paired at 100 Hz with a 5 ms delay (AP after EPSP). Five of these bursts of synchronized EPSP→AP pairs were applied at theta frequency (5 Hz), followed by an interval of 10 sec and 4 more theta blocks, resulting in 125 EPSP/AP pairings.
# aLTD: 360 postsynaptic APs were pared with 360 EPSPs with a delay of 20-30 ms between each AP/EPSP pairing at a frequency of 1 Hz. 1 Hz LTD: 600 EPSPs were elicited at a frequency of 1 Hz whilst CA1 pyramidal cell membrane potential was hold at −60 mV.
# Long-term plasticity or molecular analyses were assessed as described above after the induction phase of the CDM and the specific treatment.
# EPSP measurement: For baseline measurement, the mean amplitudes of 30 consecutive EPSPs before the induction protocol were calculated. 25 min after LTP induction the mean amplitude of 30 consecutive EPSPs was calculated and compared to the baseline of the same measurement. Changes of EPSP amplitudes were expressed as percentages of the baseline measurement and analysed for each experimental group applying a two-tailed Wilcoxon test. The differences between separate experimental groups were assessed using the Mann-Whitney test, not assuming normal distribution. […]
# CDM mice = assay: Nose-poke sucrose preference test in CDM mice; type: in vivo; conditions: CIQ or lorazepam applied prior to NAB-14
# From the text: as §1
# The IntelliCage system (TSE Systems) allows simultaneous analysis of spontaneous and exploratory behavior, activity pattern, and drinking preference of up to 16 group-housed mice implanted with radio-frequency identification (RFID) transponders. The unit consists of an open common space with 4 red shelters in the center and 4 recording corners. Mice have free access to food in the middle of the IntelliCage, water is available in the corners behind remote-controlled guillotine doors. Each corner is equipped with 2 drinking bottles and permits the visit of only one mouse at the same time. The scored parameters—the nosepokes toward the doors and the licks on the bottles—were monitored by a PC-based tracking software (IntelliCage Plus, TSE Systems). Initially, the mice were allowed to adapt to the IntelliCage for at least 7 days with water available ad libitum in all corners. Then for 3 days the animals were habituated to the sucrose taste: in each corner one of the bottles was filled with 1% sucrose solution and the other one with water. Both doors in the corner were open allowing free choice between the bottles. Next, a nosepoke adaptation period was carried out, where all doors were closed and the mice had to perform a nosepoke to open them. The opened door closes automatically after 5 s of drinking. In all tasks involving sucrose-filled bottles, the positions of the bottles were exchanged every 24 h. The Nosepoke SPT protocol was used (see Alboni et al.) for measurement of sucrose preference with gradually increasing effort (number of nosepokes) to reach the sucrose bottles for a short period of time (12 h). In this paradigm each door opens in response to a nosepoke and closes after 5 s licking. The number of nosepokes needed to open a door to a side with a sucrose containing bottle gradually increases (1, 2, 3, 4, 5, 6, 8, 10, 12, 16, 20, 24) after every 8 sucrose licking sessions. For each bottle the number of licks was recorded and the averaged sucrose preference was calculated as percentage of the total number of licks.
# [3] = tested on: CA3-CA1 synapse, CA1 pyramidal neurons in hippocampal brain slices; assay: LTP/LTD protocols and wash-in in brain slices of unstressed mice, substance in bathing solution; type: cell-based; conditions: hydrochloride; for LTP inducibility, associative LTP protocol (aLTP): unstressed mice, bath with picrotoxin, R,S-ketamine 10 μM, S-ketamine 5 μM
# [4] = tested on: SOM-dependent feedback loop, CA1 PCs; assay: Feedback loop-activating protocol (FLAP) in CA1 PCs; type: cell-based, mice
# Experimental: A 300 ms depolarizing current between +100 and +[…] was injected via the patch pipette into a PC to elicit a train of 5-10 APs. After an interval of 600 ms, one EPSP (5-10 mV amplitude) was elicited by Schaffer collateral stimulation. This pattern was continuously repeated at a frequency of 0.2 Hz. Substances were added by bath application after a stable 10 min baseline recording for an additional 20 min. For data analysis the maximum EPSP amplitudes from minutes 0-10 were averaged and compared to averaged maximum EPSP amplitudes from minutes 20-30.
# The slope of the EPSP rise at 20% to 40% of its maximal amplitude, at which point an approximately linear increase in its voltage could be assumed, was fitted with Fitmaster software (HEKA, Germany). We analyzed 20 EPSPs before and 20 EPSPs 25-30 minutes after NAB-14 wash-in in the FLAP protocol for each experiment. The coefficient of variation (CV) is the standard deviation of the EPSP slopes divided by the mean. The inverse square of the CV of the postwash-in slopes was divided by the inverse square of the prewash-in slopes and plotted against the corresponding normalized slopes. Pre- and postwash-in measurements from a single experiment are connected by a line. In a standard quantal model for synaptic transmission, synaptic responses are affected either by presynaptic changes in the number of release sites and/or the probability of release or by modifications of the postsynaptic response to a single […]. A change in the ratio of CV-2 reflects a presynaptic action, whereas horizontal lines in the CV-2 plot indicate a change in postsynaptic responsiveness.
# [5] = tested on: SOM-dependent feedback loop, CA1 PCs; assay: as above; type: cell-based, mice; remark: listed apart in the source
compound,measurement,setting,value
"N#Cc1cc2c(cc1[N+](=O)[O-])=NC(=O)C(=O)N=2 [CNQX, 6-Cyano-7-nitroquinoxaline-2,3-dione]",currents recorded at −80 mV,AMPAR and NMDAR currents,fully blocked
same,currents recorded at +40 mV,AMPAR and NMDAR currents,only partially be reduced; also recorded: only partially influenced
"COc1ccc2nc(/C=C/c3cccc([N+](=O)[O-])c3)n(-c3ccc(C(=O)O)cc3)c(=O)c2c1 [QNZ46, 4-[6-Methoxy-2-[(1E)-2-(3-nitrophenyl)ethenyl]-4-oxo-3(4H)-quinazolinyl]-Benzoic acid]",immobility time,"[1]; CDM mice, 7 mg/kg i.p. two hours before behavioral readout, n=10",significantly reduced
"N[C@@]1(c2ccccc2Cl)CCC[C@@H](O)C1=O [HNK, 2R,6R Hydroxynorketamine]",CDM-induced blockade of LTP inducibility (aLTP),[2],neither HNK nor mGluR2 antagonist 1 treatment did change this blockade
same,LTD inducibility (EPSP amplitude after aLTD protocol),[2],abolishes this reduction of amplitude; also recorded: completely blocked the LTD inducibility
same,EPSP amplitude after aLTD,"[2]; treatment prior to swim sessions (before CDM), male and female mice",complete revers of EPSP amplitudes
O=C1Nc2ccc(Cl)cc2C(c2ccccc2Cl)=NC1O (stereo not drawn) [lorazepam],"immobility time of CDM mice treated with NAB-14, comedication",[1],did not improve
same,"immobility time of CDM mice treated with NAB-14, comedication",[1]; listed as Lorazepam,blocked NAB-14 effects
same,"LTP reestablishment by NAB-14, comedication",[2],abolishing LTP reestablishment
same,"LTP reestablishment by NAB-14, comedication",[2]; listed as Lorazepam,blocked NAB-14 effects completely
same,"LTP inducibility, lorazepam alone",[2]; control and CDM condition,did block LTP inducibility
same,"sucrose preference of CDM mice treated with NAB-14, comedication",CDM mice,did not improve
"CN[C@]1(c2ccccc2Cl)CCCCC1=O.Cl [S-ketamine, S-Ketamine hydrochloride]","EPSP amplitude after associative LTD protocol (aLTD, NMDAR-independent)",[3],"unaffected; also recorded: neither R,S-ketamine (10 μM) nor S-ketamine (5 μM) had an effect"
same,"LTD inducibility, non-associative 1 Hz LTD protocol (NMDAR-dependent)",[3],fully blocked; also recorded: abolished
same,"LTP inducibility, non-associative 100 Hz LTP protocol",[3],significant blockade of inducibility of LTP
same,aLTP induction,[3],neither K nor SK blocked aLTP induction; also recorded: not affected
same,"LTP inducibility, associative LTP protocol (aLTP)",[3],significant blockade of inducibility of LTP
same,"LTP inducibility, associative LTP protocol (aLTP)",[3]; listed as SK,complete inhibition of LTP
"NC(=O)c1cc(-c2ccc(F)cc2)c2ccc(CN3C(=O)CCC3=O)cc2n1 [mGluR2 antagonist 1, 7-[(2,5-dioxopyrrolidin-1-yl)methyl]-4-(4-fluorophenyl)quinoline-2-carboxamide]",CDM-induced blockade of LTP inducibility (aLTP),[2],neither HNK nor mGluR2 antagonist 1 treatment did change this blockade
same,LTD inducibility (EPSP amplitude after aLTD protocol),[2],abolishes this reduction of amplitude; also recorded: completely blocked the LTD inducibility
COc1ccc(OCC2c3cc(OC)c(OC)cc3CCN2C(=O)c2cccc(Cl)c2)cc1 (stereo not drawn) [CIQ],"immobility time of CDM mice treated with NAB-14, comedication",[1],did not improve; also recorded: blocked NAB-14 effects
same,"LTP reestablishment by NAB-14, comedication",[2],abolishing LTP reestablishment; also recorded: blocked NAB-14 effects completely
same,"sucrose preference of CDM mice treated with NAB-14, comedication",CDM mice,did not improve
"N[C@H](CCCP(=O)(O)O)C(=O)O [DAPV, D-(−)-2-Amino-5-phosphonopentanoic acid]",currents recorded at −80 mV,AMPAR and NMDAR currents,did not significantly change; also recorded: did not have further effects
same,currents recorded at +40 mV,AMPAR and NMDAR currents,full blockade; also recorded: fully blocked
CN1C(=O)CN=C(c2ccccc2)c2cc(Cl)ccc21 [diazepam],"NAB-14-induced increase in EPSP amplitude in FLAP, in presence of diazepam",[4],abolished; also recorded: prevented
same,EPSP amplitude in the absence of AP bursts,[5],neither NAB14 nor diazepam wash-in significantly altered the EPSP amplitude; also recorded: no significant pre/post changes
